# From patent US20220280557A1, “Metabolic Reprogramming of Immune Cells for the Treatment or Prevention of Diseases and Disorders” (Arizona Board of Regents on behalf of Arizona State …, priority 2019, published 2022)
# What was measured:
# [1] = system: glycolysis (ECAR) in BMDCs; assay: Extracellular flux assay (ECAR); assay type: cell-based
# Procedure: Reduction in CD86 expression by inhibiting glycolysis in DCs can affect pro-inflammatory DC activation in the presence of lipopolysaccharide (LPS), which is used to mimic inflammation in vitro (FIG. 5A). Therefore, it was tested if PFK15 by itself can block glycolysis in bone marrow-derived DCs (BMDCs) in the presence or absence of LPS. To assess this, the extracellular acidification rate (ECAR) of BMDCs was determined by extracellular flux assays. BMDCs treated with LPS only and no treatment were used as controls.
# To test this, extracellular flux assays were used, and pre-activated DCs with LPS and no treatment were used as controls.
# BMDCs = assay: CD86 / MHCII expression in BMDCs by flow cytometry; assay type: cell-based
# Procedure: Next, it was assessed if the changes in BMDC glycolytic rates can affect surface co-stimulatory CD86 expression in BMDCs, using flow cytometry. In this study, pro-inflammatory DCs were defined as the frequency of […].
# Since DCs indeed phagocytose paKG-based MPs in vivo, it was hypothesized that the observed reduction in paw swelling in the CIA mice treated with paKG(PFK15+bc2) MPs, may be due to the paKG(PFK15+bc2) MPs modulating DC function (FIG. 8A). Therefore, first effect of paKG(PFK15+bc2) MPs on in vitro cultured BMDCs in the form of altered CD86, MHCII, IL-10, IL-12p70 and TNFα expression in CD11c^+ cells was tested.
# [2] = Encapsulation efficiency and loading (BCA assay, absorbance spectrophotometer); assay type: physicochemical; conditions: for % EE: Table 1, encapsulated in paKG particles; for % loading: Table 1, μg of drug per mg of particles
# Procedure: In one embodiment, the metabolite-based polymer or polymeric particle has at least one of high loading and high encapsulation efficiency of the at least one therapeutic agent. Encapsulation efficiency is the percentage of drug that is successfully entrapped into a polymeric particle. In one embodiment, encapsulation efficiency (% EE) is calculated by (total drug added—free non-entrapped drug) divided by the total drug added. Loading capacity is the amount of drug loaded per unit weight of a polymeric particle, indicating the percentage of mass of the polymeric particle that is due to the encapsulated drug. In one embodiment, loading capacity (% LC) can be calculated by the amount of total entrapped drug divided by the total polymeric particle weight. In one embodiment, the polymeric particle has about 50% to about 100% encapsulation efficiency of the at least one therapeutic agent. In one embodiment, the polymeric particle has about 60% to about 100% encapsulation efficiency of the at least one therapeutic agent.
# (§1) Another set of polymeric particles were generated using water-oil-water emulsion encapsulating bovine collagen type II (bc2—antigen) in the presence of PFK15 in the particles. Percentage encapsulation efficiency (EE) and percentage loading (μg of drug per mg of particles) for bc2, and PFK15 was determined using BCA assay, and absorbance spectrophotometer (plate reader), respectively (Table 1). Moreover, the release of PFK15 were studied using a plate reader, and it was determined that the polymeric particles released the drug in a sustained manner over a period of 30 days.
# [3] = Release of PFK15 from polymeric particles (plate reader); assay type: physicochemical; conditions: from paKG polymeric particles
# Procedure: as §1
# [4] = with and without LPS, vs LPS and no treatment
percentage encapsulation efficiency of PFK15 within paKG MPs ([2]; paKG(PFK15) MPs) [%],percentage loading efficiency of PFK15 ([2]; per mg of paKG MPs) [µg/mg],period of sustained release of PFK15 [3] [days],Compound,"lowering of glycolysis (ECAR) ([1]; in the presence of LPS, vs LPS alone) [%]","ECAR in BMDCs ([1]; without LPS, vs no treatment)","frequency of pro-inflammatory BMDC populations (BMDCs; in the absence of LPS, vs no treatment)","decrease of frequency of CD86+MHCII+ of CD11c+ BMDCs (BMDCs; in the presence of LPS, vs LPS)",CD86 expression in CD11c+ cells (BMDCs; [4]),anti-inflammatory BMDC populations (BMDCs; [4]),% EE [2] [%],% loading [2] [µg/mg],percentage encapsulation efficiency of bc2 ([2]; paKG(PFK15+bc2) MPs),"percentage loading efficiency of bc2 ([2]; per mg of MPs, paKG(PFK15+bc2) MPs) [µg/mg]"
68±17,2 ± 1,30,"O=C(C=Cc1ccc2ccccc2n1)c1ccncc1 [PFK15, 1-(4-pyridinyl)-3-(2-quinolinyl)-2-propen-1-one]",60,did not significantly reduce ECAR,significantly decreased,approximately 8 fold,reduced CD86 expression,did not significantly decrease,68,1.7,–,–
–,–,–,bc2: bovine collagen type II (bc2) antigen,–,–,–,–,–,–,60,3,60 % (wt/wt),3
